Key:
Assay in all cases: Test C plant response
Type in all cases: in vivo
Details in all cases: Postemergence, scale 0 to 100
[1] = test system: spring wheat (Triticum aestivum)
In short: (§1)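 Efficacy is a visual percent-control score (0 none, 100 complete), judged against controls 14 days after application. Compounds go on in a non-phytotoxic solvent carrier with surfactant. A dash marks a missing result.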

[2] = test system: bromegrass (downy bromegrass, Bromus tectorum)
In short: as §1

[3] = test system: spring barley (Hordeum vulgare)
In short: as §1

[4] = test system: wild mustard (Sinapis arvensis)
In short: as §1

[5] = test system: buckwheat (wild buckwheat, Polygonum convolvulus)
In short: as §1

[6] = test system: deadnettle (henbit deadnettle, Lamium amplexicaule)
In short: as §1

[7] = test system: Russian thistle (Salsola iberica)
In short: as §1

kochia (Kochia scoparia) = test system: kochia (Kochia scoparia)
In short: as §1

[8] = test system: oilseed rape (Brassica napus)
In short: as §1

[9] = test system: bluegrass (annual bluegrass, Poa annua)
In short: as §1

[10] = test system: field poppy (Papaver rhoeas)
In short: as §1

[11] = test system: pigweed (Amaranthus retroflexus)
In short: as §1

wild oat (Avena fatua) = test system: wild oat (Avena fatua)
In short: as §1

[12] = test system: chickweed (common chickweed, Stellaria media)
In short: as §1

[13] = test system: lambsquarters (Chenopodium album)
In short: as §1

[14] = test system: green foxtail (Setaria viridis)
In short: as §1

[15] = test system: windgrass (Apera spica-venti)
In short: as §1

[16] = test system: wild radish (Raphanus raphanistrum)
In short: as §1

[17] = test system: blackgrass (Alopecurus myosuroides)
In short: as §1

[18] = test system: winter wheat (Triticum aestivum)
In short: as §1

[19] = test system: field violet (Viola arvensis)
In short: as §1

3-cyclohexyl-5-[(2-hydroxy-6-oxo-1-cyclohexen-1-yl)carbonyl]-2-phenyl-4(3H)-pyrimidinone [Compound 128]
Plant response rating: Wheat, Spring ([1]; 31 g ai/ha): 20
Plant response rating: Wheat, Spring ([1]; 16 g ai/ha): 5
Plant response rating: Wheat, Spring ([1]; 62 g ai/ha): 35
Plant response rating: Wheat, Spring ([1]; 125 g ai/ha): 40
Plant response rating: Bromegrass, Downy ([2]; 31 g ai/ha): 50
Plant response rating: Bromegrass, Downy ([2]; 16 g ai/ha): 30
Plant response rating: Bromegrass, Downy ([2]; 62 g ai/ha): 65
Plant response rating: Bromegrass, Downy ([2]; 125 g ai/ha): 65
Plant response rating: Barley, Spring ([3]; 31 g ai/ha): 15
Plant response rating: Barley, Spring ([3]; 16 g ai/ha): 0
Plant response rating: Barley, Spring ([3]; 62 g ai/ha): 20
Plant response rating: Barley, Spring ([3]; 125 g ai/ha): 30
Plant response rating: Mustard, Wild ([4]; 31 g ai/ha): 98
Plant response rating: Mustard, Wild ([4]; 16 g ai/ha): 98
Plant response rating: Mustard, Wild ([4]; 62 g ai/ha): 98
Plant response rating: Mustard, Wild ([4]; 125 g ai/ha): 100
Plant response rating: Buckwheat, Wild ([5]; 31 g ai/ha): 70
Plant response rating: Buckwheat, Wild ([5]; 16 g ai/ha): 65
Plant response rating: Buckwheat, Wild ([5]; 62 g ai/ha): 80
Plant response rating: Buckwheat, Wild ([5]; 125 g ai/ha): 80
Plant response rating: Deadnettle ([6]; 31 g ai/ha): 98
Plant response rating: Deadnettle ([6]; 16 g ai/ha): 95
Plant response rating: Deadnettle ([6]; 62 g ai/ha): 100
Plant response rating: Deadnettle ([6]; 125 g ai/ha): 100
Plant response rating: Russian Thistle ([7]; 31 g ai/ha): 80
Plant response rating: Russian Thistle ([7]; 16 g ai/ha): 80
Plant response rating: Russian Thistle ([7]; 62 g ai/ha): 95
Plant response rating: Russian Thistle ([7]; 125 g ai/ha): 95
Plant response rating: Kochia (kochia (Kochia scoparia); 31 g ai/ha): 90
Plant response rating: Kochia (kochia (Kochia scoparia); 16 g ai/ha): 70
Plant response rating: Kochia (kochia (Kochia scoparia); 62 g ai/ha): 95
Plant response rating: Kochia (kochia (Kochia scoparia); 125 g ai/ha): 98
Plant response rating: Oilseed Rape ([8]; 31 g ai/ha): 95
Plant response rating: Oilseed Rape ([8]; 16 g ai/ha): 90
Plant response rating: Oilseed Rape ([8]; 62 g ai/ha): 98
Plant response rating: Oilseed Rape ([8]; 125 g ai/ha): 100
Plant response rating: Bluegrass ([9]; 31 g ai/ha): 35
Plant response rating: Bluegrass ([9]; 62 g ai/ha): 65
Plant response rating: Bluegrass ([9]; 125 g ai/ha): 80
Plant response rating: Field Poppy ([10]; 31 g ai/ha): 30
Plant response rating: Field Poppy ([10]; 16 g ai/ha): 20
Plant response rating: Field Poppy ([10]; 62 g ai/ha): 40
Plant response rating: Field Poppy ([10]; 125 g ai/ha): 70
Plant response rating: Pigweed ([11]; 31 g ai/ha): 95
Plant response rating: Pigweed ([11]; 16 g ai/ha): 75
Plant response rating: Pigweed ([11]; 62 g ai/ha): 95
Plant response rating: Pigweed ([11]; 125 g ai/ha): 98
Plant response rating: Oat, Wild (wild oat (Avena fatua); 31 g ai/ha): 25
Plant response rating: Oat, Wild (wild oat (Avena fatua); 62 g ai/ha): 50
Plant response rating: Oat, Wild (wild oat (Avena fatua); 125 g ai/ha): 70
Plant response rating: Chickweed ([12]; 31 g ai/ha): 95
Plant response rating: Chickweed ([12]; 16 g ai/ha): 95
Plant response rating: Chickweed ([12]; 62 g ai/ha): 98
Plant response rating: Chickweed ([12]; 125 g ai/ha): 100
Plant response rating: Lambsquarters ([13]; 31 g ai/ha): 98
Plant response rating: Lambsquarters ([13]; 16 g ai/ha): 98
Plant response rating: Lambsquarters ([13]; 62 g ai/ha): 98
Plant response rating: Lambsquarters ([13]; 125 g ai/ha): 100
Plant response rating: Foxtail, Green ([14]; 31 g ai/ha): 95
Plant response rating: Foxtail, Green ([14]; 16 g ai/ha): 95
Plant response rating: Foxtail, Green ([14]; 62 g ai/ha): 95
Plant response rating: Foxtail, Green ([14]; 125 g ai/ha): 95
Plant response rating: Windgrass ([15]; 31 g ai/ha): 70
Plant response rating: Windgrass ([15]; 16 g ai/ha): 60
Plant response rating: Windgrass ([15]; 62 g ai/ha): 85
Plant response rating: Windgrass ([15]; 125 g ai/ha): 95
Plant response rating: Radish, Wild ([16]; 31 g ai/ha): 95
Plant response rating: Radish, Wild ([16]; 16 g ai/ha): 95
Plant response rating: Radish, Wild ([16]; 62 g ai/ha): 95
Plant response rating: Radish, Wild ([16]; 125 g ai/ha): 95
Plant response rating: Blackgrass ([17]; 31 g ai/ha): 20
Plant response rating: Blackgrass ([17]; 16 g ai/ha): 20
Plant response rating: Blackgrass ([17]; 62 g ai/ha): 35
Plant response rating: Blackgrass ([17]; 125 g ai/ha): 35
Plant response rating: Wheat, Winter ([18]; 31 g ai/ha): 30
Plant response rating: Wheat, Winter ([18]; 16 g ai/ha): 0
Plant response rating: Wheat, Winter ([18]; 62 g ai/ha): 30
Plant response rating: Wheat, Winter ([18]; 125 g ai/ha): 35
Plant response rating: Field Violet ([19]; 31 g ai/ha): 0
Plant response rating: Field Violet ([19]; 16 g ai/ha): 0
Plant response rating: Field Violet ([19]; 62 g ai/ha): 35
Plant response rating: Field Violet ([19]; 125 g ai/ha): 35
